These results are taken from patent US10918655B2, “Stimulating platelet generation by activating mitochondrial biogenesis” (THE GENERAL HOSPITAL CORPORATION, priority 2016, dated 2021).

The subject of data set [1] is circulating platelet counts. As to the kind of experiment: circulating platelet counts in mice receiving 5-FU. The format is in vivo. The following applies: on day 4; dose of 150 mg/kg body weight. As for the experimental part:
FIGS. 6A-6D provide graphs showing that LLL alleviates thrombocytopenia induced by anti-CD41 antibody or 5-FU in mice. (A and B) Mice were administered daily with 0.1 mg/kg anti-CD41 antibody over 7 days. LLL was given daily from day 3 to day 7. […] LLL was given daily for 3 consecutive days starting at 4 hr after 5-FU injection. Platelet counts (A and C) were measured daily at 6 hr post-LLL and a tail bleeding time (B and D) was examined on day 5 (B) or day 4 (D). n=6; ns, no significance; and *P<0.05, **P<0.01, ***P<0.001 compared between indicated groups.
We further extended our investigation to ITP precluding that LLL-mediated thrombopoiesis was specific for thrombocytopenia induced by γ-irradiation. We depleted platelets by administering anti-CD41 antibody daily at 0.1 mg/kg body weight from day 0 to day 7 to create a commonly used animal model of ITP. Katsman et al., Transfusion 50, 1285-1294 (2010). […] LLL lifted the nadir effectively after only two treatments (day 4) and greatly accelerated a recovery of platelet counts in the presence of anti-CD41 antibody, although platelet counts were rebound in all the mice eventually owing to compensatory thrombopoiesis (FIG. 6A). Bleeding time was also normalized on day 5 in LLL-treated animals (FIG. 6B). […]

A further data set deals with Mouse MKs. As to the kind of experiment: platelet production ex vivo from MKs in the presence of mito-drugs. The format is cell-based. The following applies: for platelet generation from MKs ex vivo: Bezafibrate 400 μM, Resveratrol 50 μM, SRT1720 0.1 μM, AICAR 500 μM, MK medium for 3 days, compared to controls. As for the experimental part: FIG. 9 provides a graph showing enhancement of platelet production ex vivo by mito-drugs. C. control; Bez, Bezafibrate (400 μM); Res, Resveratrol (50 μM); SRT1720, 0.1 μM; Aicar, AICAR (500 μM); LLL, 810 nm 3 J/cm^2. Mouse MKs were differentiated in MK medium for 3 days in the presence of an indicated drug or after LLLT. **, p<0.01 and ***, p<0.001 compared to controls. n=6.
Some mito-drugs tested enhance platelet production from MKs ex vivo. […] The concentration used for individual drugs is the one commonly used for inducing PGC-1α expression in other cell cultures except for SRT1720 that was used at a 100× lower concentration. […] Perhaps, the concentration of each drug can be further optimized for enhancing platelet production.

In the next data set the test system is 5-FU-treated mice. Put plainly: platelet production in vivo in 5-FU-induced thrombocytopenia with mito-drugs. Details: species or system B6 mice. The following applies: 100 mg/kg gavage twice a day for 4 days. As for the experimental part: FIG. 10 provides a graph showing the enhancement of plt production by mito-drugs in vivo. All mice were treated with two doses of 5-FU (FU), along with an indicated mito-drug or LLLT for 4 consecutive days (red arrow). *, p<0.05, **, p<0.01 and ***, p<0.001 in the presence or absence of indicated drugs or LLLT. n=10 in each group.
The 5-FU-treated mice were gavaged with BEZ or Res at 100 mg/kg body weight or vehicle control twice a day for 4 consecutive days starting at 6 hr after the first 5-FU injection. For comparison, 5-FU-treated mice were also administered LLL daily for 4 consecutive days in parallel. […] Whether or not a higher dose or dosage of BEZ can further increase the efficacy remains to be investigated.

In another data set the test system is PPF-MKs. The following applies: Richardson et al., Blood 2005; cited from earlier work.
Data set [2] deals with MKs. Put plainly: platelet production from LLL-treated MKs with Oligomycin A in MK medium. The format is cell-based, mouse. The following applies: 5 μg/ml in MK medium. The protocol:
(§1) FIGS. 1A-1H provide graphs and images showing LLL promotes MK maturation and platelet production. (A) Illustration of time lines of ex vivo platelet differentiation from MKs. CD41+ FSC^high MKs were sorted from BM cells, treated with or without LLL, and cultured in MK medium. MKs were collected 1 hr later for cellular ATP measurement (B), 1 day for studying proplatelet formation (C-F) or 3 days for counting platelets (G). (B) ATP was measured in 5×10^4 MKs treated with LLL at various energy densities. (C) Sizes of CD41+ MKs were analyzed by flow cytometric analysis of forward/side scatter (FSC) before and after 24 hr differentiation. (D) Representative transmission electron micrographs of MKs from at least 6 samples per group with 30 cells in each group. N, nuclear; IMS, invaginated membrane system. […] (F) The numbers indicated percentages of small or large PPF-MKs of at least 500 MKs analyzed per sample and 6 samples per group. ###P<0.001, large PPF-MKs and **P<0.01, total PPF-MKs compared between the two groups. […]
(§2) FIGS. 2A-2H provide graphs and images showing the thrombopoietic effect of LLL is ATP-dependent. (A) Correlations between MK ATP levels at 1 hr post-LLL and platelets measured in 3 days later are analyzed by coefficient of determination. […] Mitochondrial membrane potential of CD41+ FSC^high MKs was determined by flow cytometric analysis of red J-aggregate fluorescence at 590 nm. […]

Data set [3] has as its system MKs. As to the kind of experiment: ATP measurement in MKs with Oligomycin A. The format is cell-based, mouse. The following applies: 5 μg/ml. As for the experimental part: as §1, §2
The next data set relates to IEX-1-deficient mice. The following applies: Ramsey et al., Platelets 2015; cited from earlier work.

As to `O=c1[nH]cc(F)c(=O)[nH]1` [5-FU, 5-fluorouracil], the “diminished circulating platelet counts” value in data set [1] was found to be 43%.
For the molecule `Oc1ccc(C=Cc2cc(O)cc(O)c2)cc1` [resveratrol], the “platelet generation from MKs ex vivo” value in the data set on Mouse MKs was “enhance platelet generation from MKs ex vivo significantly”. Moreover, in the data set with 5-FU-treated mice (5-FU-treated mice), the “efficacy compared to BEZ or LLLT” value was “relatively weak”, the “nadir of platelet counts” value is given as “lifted the nadir significantly” and the platelet biogenesis entry is “augmented platelet biogenesis”.
Molecule `CC(C)(Oc1ccc(CCNC(=O)c2ccc(Cl)cc2)cc1)C(=O)O` [BEZ, bezafibrate] returned a platelet counts sustained in the data set on 5-FU-treated mice (5-FU 120 and 90 mg/kg on days 1 and 4) of at least 70 % the normal value.
As for `Nc1ncnc2c1ncn2[C@@H]1O[C@H](COP(=O)(O)OP(=O)(O)OP(=O)(O)O)[C@@H](O)[C@H]1O` [ATP], in the data set on PPF-MKs, the proplatelet elongation entry is listed as “activated proplatelet elongation” and the proplatelet growth entry is “significantly enhanced proplatelet growth”.
On to `CC[C@@H]1/C=C/C=C/C[C@H](C)[C@H](O)[C@](C)(O)C(=O)[C@H](C)[C@@H](O)[C@H](C)C(=O)[C@H](C)[C@@H](O)[C@H](C)/C=C/C(=O)O[C@H]2[C@@H](C)[C@@H](CC1)O[C@@]1(CC[C@@H](C)[C@@H](C[C@H](C)O)O1)[C@@H]2C` [Oligomycin A], for which, in the data set on MKs [2], the “LLL-mediated enhancement of platelet generation” value is “severely blunted”. Besides, the “ATP synthesis in the cells” value in the data set with MKs [3] was “reduces ATP synthesis”.
`O=C(Nc1ccccc1-c1cn2c(CN3CCNCC3)csc2n1)c1cnc2ccccc2n1` [SRT1720]: the “platelet generation from MKs ex vivo” value in the data set on Mouse MKs was “enhance platelet generation from MKs ex vivo significantly”. Also, in the data set on Mouse MKs (higher concentration of SRT1720 (than 0.1 μM)), the platelet production entry is given as “did not increase platelet production significantly”.
For `COC1=C(OC)C(=O)C(CCCCCCCCCC[P+](c2ccccc2)(c2ccccc2)c2ccccc2)=C(C)C1=O` [mitoquinone], the “thrombocytopenia in IEX-1-deficient mice” value in the data set on IEX-1-deficient mice is on record as “completely reverse thrombocytopenia”.
